EP4563146A1 (IRBM S.P.A., priority 2023, dated 2025)
Where two headings read alike, the source gives them in different places.

Assays:
[1] = tested on: ZIKV replicon; experiment: ZIKV replication inhibition assay (NanoLuc replicon in Vero cells); conditions: 72 h
[2] = target: T1, West Nile Virus (WNV) NS2B-NS3 protease (West Nile virus, UniProt Q9Q6P4); experiment: WNV protease inhibition assay; assay type: biochemical; conditions: Table 4; letter codes for IC50
T1 construct: NS2B1423-1470); purchased R&D 2907-SE-020
Source text: WNV protease inhibition assay

[3] = Zika virus, Vero, read-out: ZIKA Cell_Nanoluc
[4] = Zika virus, Vero, read-out: ZIKA Cell_Nanoluc, Vero cells with stable ZIKV replicon, 72 h, Nano-Glo readout

T1 sequence (Q9Q6P4 1423-1470): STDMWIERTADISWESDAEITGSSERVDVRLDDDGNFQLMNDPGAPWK
T1 sequence (Q9Q6P4 1506-1689): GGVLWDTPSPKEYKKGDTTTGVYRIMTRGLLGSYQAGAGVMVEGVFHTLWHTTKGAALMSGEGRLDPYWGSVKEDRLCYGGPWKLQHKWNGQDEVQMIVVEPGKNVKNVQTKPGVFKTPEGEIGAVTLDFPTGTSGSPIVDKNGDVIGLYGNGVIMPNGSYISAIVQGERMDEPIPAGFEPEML

## Cc1cccc(CC(=O)Nc2cc(NC(=O)[N-]c3c[n+]([C@H]4CC[C@H](CN(C)C)CC4)no3)cc(C(F)(F)F)c2)c1C [Example 212, (3-((1R,4R)-4-((Dimethylamino)methyl)-cyclohexyl)-1,2,3-oxadiazol-3-ium-5-yl)((3-(2-(2,3-dimethylphenyl)acetamido)-5-(trifluoromethyl)phenyl)carbamoyl)amide]
[1]; [3]
  EC50: 1000 to 20000 nM
[2]
  IC50: 100 to 1000 nM

## Cc1ccccc1CC(=O)Nc1cc(NC(=O)[N-]c2c[n+]([C@H]3CCC[C@@H](CN(C)C)C3)no2)cc(C(F)(F)F)c1 [Example 213, (3-((1S,3R)-3-((Dimethylamino)methyl)-cyclohexyl)-1,2,3-oxadiazol-3-ium-5-yl)((3-(2-(o-tolyl)acetamido)-5-(trifluoromethyl)phenyl)carbamoyl)amide]
[1]; [4]
  EC50: 1000 to 20000 nM
[2]
  IC50: 100 to 1000 nM

## Cc1ccccc1CC(=O)Nc1cc(NC(=O)[N-]c2c[n+]([C@@H]3CCC[C@H](O)C3)no2)cc(C(F)(F)F)c1 [Example 214, (3-((1R,3S)-3-Hydroxycyclohexyl)-1,2,3-oxadiazol-3-ium-5-yl)((3-(2-(o-tolyl)acetamido)-5-(trifluoromethyl)phenyl)carbamoyl)amide]
[1]; [4]
  EC50: 1000 to 20000 nM
[2]
  IC50: 100 to 1000 nM

## Cc1ccccc1CC(=O)Nc1cc(NC(=O)[N-]c2c[n+]([C@@H]3CCC[C@@H](O)C3)no2)cc(C(F)(F)F)c1 [Example 215, (3-((1R,3R)-3-Hydroxycyclohexyl)-1,2,3-oxadiazol-3-ium-5-yl)((3-(2-(o-tolyl)acetamido)-5-(trifluoromethyl)phenyl)carbamoyl)amide]
[1]; [4]
  EC50: < 100 nM
[2]
  IC50: < 100 nM

## Cc1ncnc(C)c1C1=CCC(C[n+]2cc([N-]C(=O)Nc3ccnc(C(F)(F)F)c3)on2)CC1 (centres unmarked) [Example 216, (3-((4-(4,6-Dimethylpyrimidin-5-yl)cyclohex-3-en-1-yl)methyl)-1,2,3-oxadiazol-3-ium-5-yl)((2-(trifluoromethyl)pyridin-4-yl)carbamoyl)amide]
[1]; [4]
  EC50: 1000 to 20000 nM
[2]
  IC50: 100 to 1000 nM

## Cc1ccccc1CC(=O)Nc1cc(NC(=O)[N-]c2c[n+](C[C@H]3CCCC[C@H]3O)no2)cc(C(F)(F)F)c1 [Example 217, (3-(((1R,2R)-2Hydroxycyclohexyl)methyl)-1,2,3-oxadiazol-3-ium-5-yl)((3-(2-(o-tolyl)acetamido)-5-(trifluoromethyl)phenyl)-carbamoyl)amide]
[1]; [4]
  EC50: < 100 nM
[2]
  IC50: < 100 nM

## Cc1ccccc1CC(=O)Nc1cc(NC(=O)[N-]c2c[n+](C[C@@H]3CCCC[C@H]3O)no2)cc(C(F)(F)F)c1 [Example 218, (3-(((1S,2R)-2-Hydroxycyclohexyl)methyl)-1,2,3-oxadiazol-3-ium-5-yl)((3-(2-(o-tolyl)acetamido)-5-(trifluoromethyl)phenyl)-carbamoyl)amide]
[1]; [4]
  EC50: 100 to 1000 nM
[2]
  IC50: 100 to 1000 nM

## O=C([N-]c1c[n+]([C@H]2CCC[C@H](c3cncnc3)C2)no1)Nc1ccnc(C(F)(F)F)c1 [Example 219, (3-((1S,3S)-3-(Pyrimidin-5-yl)cyclohexyl)-1,2,3-oxadiazol-3-ium-5-yl)((2-(trifluoromethyl)pyridin-4-yl)carbamoyl)amide]
[1]; [4]
  EC50: 1000 to 20000 nM
[2]
  IC50: 100 to 1000 nM

## O=C([N-]c1c[n+]([C@H]2CCC[C@@H](c3cncnc3)C2)no1)Nc1ccnc(C(F)(F)F)c1 [Example 220, (3-((1S,3R)-3-(Pyrimidin-5-yl)cyclohexyl)-1,2,3-oxadiazol-3-ium-5-yl)((2-(trifluoromethyl)-pyridin-4-yl)carbamoyl)amide]
[1]; [4]
  EC50: 100 to 1000 nM
[2]
  IC50: 100 to 1000 nM

## Cc1ccccc1CC(=O)Nc1cc(NC(=O)[N-]c2c[n+]([C@H]3CCC[C@H](c4cncnc4)C3)no2)cc(C(F)(F)F)c1 [Example 221, (3-((1S,3S)-3-(Pyrimidin-5-yl)cyclohexyl)-1,2,3-oxadiazol-3-ium-5-yl)((3-(2-(o-tolyl)acetamido)-5-(trifluoromethyl)phenyl)carbamoyl)amide]
[1]; [4]
  EC50: 1000 to 20000 nM
[2]
  IC50: 100 to 1000 nM

## Cc1ccccc1CC(=O)Nc1cc(NC(=O)[N-]c2c[n+]([C@H]3CCC[C@@H](c4cncnc4)C3)no2)cc(C(F)(F)F)c1 [Example 222, (3-((1S,3R)-3-(Pyrimidin-5-yl)cyclohexyl)-1,2,3-oxadiazol-3-ium-5-yl)((3-(2-(o-tolyl)acetamido)-5-(trifluoromethyl)phenyl)-carbamoyl)amide]
[1]; [4]
  EC50: 100 to 1000 nM
[2]
  IC50: < 100 nM

## COC(=O)[C@H]1CCC[C@@H]([n+]2cc([N-]C(=O)Nc3cc(NC(=O)Cc4ccccc4C)cc(C(F)(F)F)c3)on2)C1 [Example 223, (3-((1R,3S)-3-(Methoxycarbonyl)cyclohexyl)-1,2,3-oxadiazol-3-ium-5-yl)((3-(2-(o-tolyl)acetamido)-5-(trifluoromethyl)phenyl)-carbamoyl)amide]
[1]; [4]
  EC50: < 100 nM
[2]
  IC50: < 100 nM

## COC(=O)[C@@H]1CCC[C@@H]([n+]2cc([N-]C(=O)Nc3cc(NC(=O)Cc4ccccc4C)cc(C(F)(F)F)c3)on2)C1 [Example 224, (3-((1R,3R)-3-(Methoxycarbonyl)cyclohexyl)-1,2,3-oxadiazol-3-ium-5-yl)((3-(2-(o-tolyl)-acetamido)-5-(trifluoromethyl)phenyl)-carbamoyl)amide]
[1]; [4]
  EC50: < 100 nM
[2]
  IC50: < 100 nM

## Cc1ncncc1-c1ccc(C[n+]2cc([N-]C(=O)Nc3ccnc(C(F)(F)F)c3)on2)cc1 [Example 225, (3-(4-(4-Methylpyrimidin-5-yl)benzyl)-1,2,3-oxadiazol-3-ium-5-yl)((2-(trifluoromethyl)pyridin-4-yl)carbamoyl)amide]
[1]; [4]
  EC50: 100 to 1000 nM
[2]
  IC50: 100 to 1000 nM

## Cc1ncnc(C)c1-c1ccc(C[n+]2cc([N-]C(=O)Nc3ccnc(C(C)(C)C)c3)on2)cc1 [Example 226, ((2-(tert-Butyl)pyridin-4-yl)carbamoyl)(3-(4-(4,6-dimethylpyrimidin-5-yl)benzyl)-1,2,3-oxadiazol-3-ium-5-yl)amide]
[1]; [4]
  EC50: 1000 to 20000 nM
[2]
  IC50: < 100 nM

## COC(=O)[C@H]1CC[C@H]([n+]2cc([N-]C(=O)Nc3cc(NC(=O)Cc4ccccc4C)cc(C(F)(F)F)c3)on2)CC1 [Example 227, (3-((1R,4R)-4-(Methoxycarbonyl)cyclohexyl)-1,2,3-oxadiazol-3-ium-5-yl)((3-(2-(o-tolyl)-acetamido)-5-(trifluoromethyl)phenyl)carbamoyl) amide]
[1]; [3]
  EC50: 1000 to 20000 nM
[2]
  IC50: < 100 nM

## Cc1ccccc1CC(=O)Nc1cc(NC(=O)[N-]c2c[n+]([C@H]3CC[C@H](CO)CC3)no2)cc(C(F)(F)F)c1 [Example 228, (3-((1R,4R)-4-(Hydroxymethyl)cyclohexyl)-1,2,3-oxadiazol-3-ium-5-yl)((3-(2-(o-tolyl)acetamido)-5-(trifluoromethyl)phenyl)carbamoyl)amide]
[1]; [3]
  EC50: 100 to 1000 nM
[2]
  IC50: 100 to 1000 nM

## Cc1ccccc1CC(=O)Nc1cc(NC(=O)[N-]c2c[n+]([C@H]3CC[C@H](C(=O)O)CC3)no2)cc(C(F)(F)F)c1 [Example 229, (3-((1R,4R)-4-Carboxycyclohexyl)-1,2,3-oxadiazol-3-ium-5-yl)((3-(2-(o-tolyl)acetamido)-5-(trifluoromethyl)phenyl)carbamoyl)amide]
[1]; [3]
  EC50: 1000 to 20000 nM
[2]
  IC50: 100 to 1000 nM

## Cc1ccccc1CC(=O)Nc1cc(NC(=O)[N-]c2c[n+]([C@@H]3CCCC(CO)C3)no2)cc(C(F)(F)F)c1 (stereo partly drawn) [Example 230, (3-((1R)-3-(Hydroxymethyl)cyclohexyl)-1,2,3-oxadiazol-3-ium-5-yl)((3-(2-(o-tolyl)acetamido)-5-(trifluoromethyl)phenyl)carbamoyl)amide]
[1]; [4]
  EC50: 1000 to 20000 nM
[2]
  IC50: < 100 nM

## CNC(=O)[C@@H]1CCC[C@@H]([n+]2cc([N-]C(=O)Nc3cc(NC(=O)Cc4ccccc4C)cc(C(F)(F)F)c3)on2)C1 [Example 231, (3-((1R,3R)-3-(Methylcarbamoyl)cyclohexyl)-1,2,3-oxadiazol-3-ium-5-yl)((3-(2-(o-tolyl)acetamido)-5-(trifluoromethyl)phenyl)-carbamoyl)amide]
[1]; [4]
  EC50: 1000 to 20000 nM
[2]
  IC50: < 100 nM

## CNC(=O)[C@H]1CCC[C@@H]([n+]2cc([N-]C(=O)Nc3cc(NC(=O)Cc4ccccc4C)cc(C(F)(F)F)c3)on2)C1 [Example 232, (3-((1R,3S)-3-(Methylcarbamoyl)cyclohexyl)-1,2,3-oxadiazol-3-ium-5-yl)((3-(2-(o-tolyl)acetamido)-5-(trifluoromethyl)phenyl)-carbamoyl)amide]
[1]; [4]
  EC50: 1000 to 20000 nM
[2]
  IC50: 100 to 1000 nM

## Cc1ncnc(C)c1-c1ccc(C[n+]2cc([N-]C(=O)N[C@H]3CC[C@H](C(F)(F)F)C3)on2)cc1 [Example 233, (3-(4-(4,6-Dimethylpyrimidin-5-yl)benzyl)-1,2,3-oxadiazol-3-ium-5-yl)(((1S,3S)-3-(trifluoromethyl)cyclopentyl)carbamoyl)amide]
[1]; [4]
  EC50: 100 to 1000 nM
[2]
  IC50: 100 to 1000 nM

## Cc1ccccc1CC(=O)Nc1cc(NC(=O)[N-]c2c[n+]([C@@H]3CCC[C@H](C(=O)N(C)C)C3)no2)cc(C(F)(F)F)c1 [Example 234, (3-((1R,3S)-3-(Dimethylcarbamoyl)cyclohexyl)-1,2,3-oxadiazol-3-ium-5-yl)((3-(2-(o-tolyl)-acetamido)-5-(trifluoromethyl)phenyl)-carbamoyl)amide]
[1]; [4]
  EC50: 1000 to 20000 nM
[2]
  IC50: 100 to 1000 nM

## Cc1ccccc1CC(=O)Nc1cc(NC(=O)[N-]c2c[n+]([C@@H]3CCC[C@@H](C(N)=O)C3)no2)cc(C(F)(F)F)c1 [Example 235, (3-((1R,3R)-3-Carbamoylcyclohexyl)-1,2,3-oxadiazol-3-ium-5-yl)((3-(2-(o-tolyl)acetamido)-5-(trifluoromethyl)phenyl)carbamoyl)amide]
[1]; read-out: ZIKA Cell_Nanoluc, Vero cells with stable ZIKV replicon, Nano-Glo readout
  EC50: 100 to 1000 nM
[2]
  IC50: < 100 nM

## O=C([N-]c1c[n+](Cc2ccc(-c3cncnc3)cc2)no1)Nc1ccnc(C(F)(F)F)c1 [Example 236, (3-(4-(Pyrimidin-5-yl)benzyl)-1,2,3-oxadiazol-3-ium-5-yl)((2-(trifluoromethyl)pyridin-4-yl)-carbamoyl)amide]
[1]; [4]
  EC50: 100 to 1000 nM
[2]
  IC50: 100 to 1000 nM
